Experiment [1] deals with dimethylarginine dimethylaminohydrolase-1 (DDAH-1) (Homo sapiens, UniProt O94760). Put plainly: time-dependent inactivation kinetics in competition with ADMA. In kind it is biochemical. To be noted: read-out: Ki.
For experiment [2], the target named is T1, human arginase-I (Mn-hArgI) (Homo sapiens, UniProt P05089).
T1 sequence (P05089 1-322): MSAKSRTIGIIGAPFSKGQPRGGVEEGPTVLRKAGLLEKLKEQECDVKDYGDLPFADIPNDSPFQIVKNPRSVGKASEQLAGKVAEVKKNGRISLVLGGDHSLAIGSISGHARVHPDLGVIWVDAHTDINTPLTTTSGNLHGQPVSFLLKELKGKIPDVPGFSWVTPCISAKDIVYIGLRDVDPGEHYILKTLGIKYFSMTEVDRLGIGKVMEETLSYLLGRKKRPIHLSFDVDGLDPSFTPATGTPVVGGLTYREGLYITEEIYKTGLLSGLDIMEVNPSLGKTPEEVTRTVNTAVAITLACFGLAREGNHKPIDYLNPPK
Put plainly: urea formation assay, IC50 […] with Cheng-Prusoff Ki. Type of experiment: biochemical.

Our source for the KI (inactivation) and Ki values is article PMC4311893 (ChemMedChem, 2014).

Sequence of dimethylarginine dimethylaminohydrolase-1 (DDAH-1) (O94760 whole entry): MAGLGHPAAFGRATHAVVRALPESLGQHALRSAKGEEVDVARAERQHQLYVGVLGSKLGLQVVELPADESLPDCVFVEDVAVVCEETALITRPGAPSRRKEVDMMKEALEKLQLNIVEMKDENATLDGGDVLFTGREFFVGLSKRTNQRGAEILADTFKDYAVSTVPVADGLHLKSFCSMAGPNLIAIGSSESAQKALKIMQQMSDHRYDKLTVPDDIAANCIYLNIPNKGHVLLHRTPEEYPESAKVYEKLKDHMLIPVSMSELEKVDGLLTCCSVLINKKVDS

Consider `N=C(CCl)NCCC[C@H](N)C(=O)O` [Cl-NIO, N^5-(1-imino-2-chloroethyl)-L-ornithine], for which the KI (inactivation) in experiment [1] was 0.0013 ± 0.0006 mM. The affinity in experiment [2] corresponds to a Ki of 3.1 mM.
